Experimental findings from ChEMBL document CHEMBL1671830, “Discovery of PSI-353661, a Novel Purine Nucleotide Prodrug for the Treatment of HCV Infection” (ACS Med Chem Lett, 2011) are described below.

Data set [1] is described as follows: Cytotoxicity against human HepG2 cells after 96 hrs by MTS assay. The data set is classed as cell-based. (In general: Tetrazolium dyes change colour on reduction, which living cells bring about.)
Data set [2] is described as follows: Cytotoxicity against human HuH7 cells after 96 hrs by MTS assay. It is filed as cell-based, Huh-7.
For data set [3], the system named is Hepatitis C virus. In words: Antiviral activity against HCV infected in human HuH7 cells by cell-based replicon assay. The data set is classed as functional, Hepacivirus hominis, Huh-7. For orientation: A replicon is a self-replicating genome or part of one, used to study replication in cells.
Data set [4] is described as follows: Cytotoxicity against human […] cells after 96 hrs by MTS assay. The data set is classed as cell-based.
The nature of data set [5]: Cytotoxicity against human CEM cells after 96 hrs by MTS assay. The data set is classed as cell-based. To be noted: CEM (CCRF-CEM) cells.
The subject of data set [6] is Hepatitis C virus. The experiment in a line: Antiviral activity against HCV harboring NS5B polymerase S282T mutant infected in human HuH7 cells by cell-based replicon assay. The data set is classed as functional, Hepacivirus hominis, Huh-7.
Another data set deals with Huh-7. In words: Increase of cellular triphosphate level in human HuH7 cells at 100 uM after 48 hrs by HPLC analysis. It is filed as functional.
The subject of the next data set is Hepatocyte. In words: Increase of cellular triphosphate level in human primary hepatocytes cells at 100 uM after 24 hrs by HPLC analysis. The data set is classed as functional.

Structures are written as SMILES. A value given as a limit tells only on which side of the number the result lay.

One may read the CC50 as the concentration that lowers cell viability or growth by half. Lower therefore signals greater toxicity to the cells. A word on the EC90: it is the point of the concentration-response curve where the effect stands at 90%. A low value points to an effect from little substance. For `CCOC(=O)[C@H](C)NP(=O)(OC[C@H]1O[C@@H](n2cnc3c(N4CCC4)nc(N)nc32)[C@](C)(F)[C@@H]1O)Oc1ccccc1` (some centres not stated), the CC50 at 96 h in data set [1] is 75 µM; in data set [2], 84 µM; in data set [4], 84 µM; in data set [5], 39 µM. In the data set on Hepatitis C virus [3] (Hepatitis C virus, Huh-7), the EC90 was determined as 0.007 µM.
With `CCOc1nc(N)nc2c1ncn2[C@@H]1O[C@H](COP(=O)(N[C@@H](C)C(=O)OC(C)C)Oc2ccccc2)[C@@H](O)[C@@]1(C)F` (some centres not stated), the CC50 at 96 h in data set [1] was greater than 100 µM; in data set [2], 59 µM; in data set [4], greater than 100 µM; in data set [5], 93 µM. For the same molecule, it took 0.02 µM to reach the 90% level with Hepatitis C virus [3] (Hepatitis C virus, Huh-7) (EC90).
For the molecule `CCOC(=O)[C@H](C)NP(=O)(OC[C@H]1O[C@@H](n2cnc3c(O)nc(N)nc32)[C@](C)(F)[C@@H]1O)Oc1ccccc1` (some centres not stated), the CC50 at 96 h in data set [1], in data set [2], in data set [4] and in data set [5] was greater than 100 µM each time. The same molecule came in with an EC90 with Hepatitis C virus [3] (Hepatitis C virus, Huh-7) of 2.38 µM.
`CCOC(=O)[C@H](C)NP(=O)(OC[C@H]1O[C@@H](n2cnc3c(OC)nc(N)nc32)[C@](C)(F)[C@@H]1O)Oc1ccccc1` (some centres not stated): the CC50 at 96 h in data set [1] is 62 µM; in data set [2], greater than 100 µM; in data set [4], 65 µM; in data set [5], 55 µM. The 90% effect concentration (EC90) was found to be 0.0074 µM in the data set on Hepatitis C virus [3] (Hepatitis C virus, Huh-7) and 0.011 µM in the data set with Hepatitis C virus [6] (Hepatitis C virus, Huh-7).
Take `CC(C)OC(=O)[C@H](C)NP(=O)(OC[C@H]1O[C@@H](n2cnc3c(N4CCC4)nc(N)nc32)[C@](C)(F)[C@@H]1O)Oc1ccccc1` (some centres not stated): the CC50 at 96 h in data set [1] is 100 µM; in data set [2], 53 µM; in data set [4] it was 74 µM; in data set [5], 74 µM. In the data set on Hepatitis C virus [3] (Hepatitis C virus, Huh-7), this molecule gave an EC90 of 0.019 µM.
For `COC(=O)[C@H](C)NP(=O)(OC[C@H]1O[C@@H](n2cnc3c(NC4CC4)nc(N)nc32)[C@](C)(F)[C@@H]1O)Oc1ccccc1` (some centres not stated), the CC50 at 96 h in data set [1] was greater than 100 µM; in data set [2], greater than 100 µM; in data set [4] it was greater than 100 µM; in data set [5], 34 µM. In addition, the EC90 in the data set on Hepatitis C virus [3] (Hepatitis C virus, Huh-7) came to 0.0082 µM.
`CCOC(=O)[C@H](C)NP(=O)(OC[C@H]1O[C@@H](n2cnc3c(OCCOC)nc(N)nc32)[C@](C)(F)[C@@H]1O)Oc1ccccc1` (some centres not stated) yielded an EC90 with Hepatitis C virus [3] (Hepatitis C virus, Huh-7) of 0.02 µM.
Still for that read-out and setting: with `CCCOc1nc(N)nc2c1ncn2[C@@H]1O[C@H](COP(=O)(N[C@@H](C)C(=O)OCC)Oc2ccccc2)[C@@H](O)[C@@]1(C)F` (some centres not stated) the figure was 0.013 µM.
Same read-out and setting: with `CCOC(=O)[C@H](C)NP(=O)(OC[C@H]1O[C@@H](n2cnc3c(OCCF)nc(N)nc32)[C@](C)(F)[C@@H]1O)Oc1ccccc1` (some centres not stated) the figure was 0.027 µM.
On to `COC(=O)[C@H](C)NP(=O)(OC[C@H]1O[C@@H](n2cnc3c(OC)nc(N)nc32)[C@](C)(F)[C@@H]1O)Oc1ccccc1` (some centres not stated), for which the CC50 at 96 h was 71 µM in data set [1], greater than 100 µM in data set [2], greater than 100 µM in data set [4] and 20 µM in data set [5]. The molecule also showed an EC90 with Hepatitis C virus [3] (Hepatitis C virus, Huh-7) of 0.0081 µM.
As for `COc1nc(N)nc2c1ncn2[C@@H]1O[C@H](CO[P@](=O)(N[C@@H](C)C(=O)OC(C)C)Oc2ccccc2)[C@@H](O)[C@@]1(C)F`, the Activity in the data set on Huh-7 worked out at 0.07 mM; with Hepatocyte, 0.14 mM. Also, the EC90 was determined as 0.027 µM in the data set on Hepatitis C virus [3] (Hepatitis C virus, Huh-7) and 0.038 µM in the data set with Hepatitis C virus [6] (Hepatitis C virus, Huh-7).
For the molecule `CCOC(=O)[C@H](C)NP(=O)(OC[C@H]1O[C@@H](n2cnc3c(OCC)nc(N)nc32)[C@](C)(F)[C@@H]1O)Oc1ccccc1` (some centres not stated), the CC50 at 96 h in data set [1] is 61 µM; in data set [2], 47 µM; in data set [4], 68 µM; in data set [5], 37 µM. This molecule registered an EC90 in the data set with Hepatitis C virus [3] (Hepatitis C virus, Huh-7) of 0.01 µM.
Taken in the same sequence, the figures for `CC(C)OC(=O)[C@H](C)NP(=O)(OC[C@H]1O[C@@H](n2cnc3c(NC4CC4)nc(N)nc32)[C@](C)(F)[C@@H]1O)Oc1ccccc1` (some centres not stated) were greater than 100 µM, 96 µM, 98 µM, greater than 100 µM and 0.0088 µM.
In the data set with Hepatitis C virus [3] (Hepatitis C virus, Huh-7), `CCOC(=O)[C@H](C)NP(=O)(OC[C@H]1O[C@@H](n2cnc3c(NC4CCC4)nc(N)nc32)[C@](C)(F)[C@@H]1O)Oc1ccccc1` (some centres not stated) registered an EC90 of 0.024 µM.
On the same count and under the same terms, the value for `CCOC(=O)[C@H](C)NP(=O)(OC[C@H]1O[C@@H](n2cnc3c(SCC)nc(N)nc32)[C@](C)(F)[C@@H]1O)Oc1ccccc1` (some centres not stated) was 0.047 µM.
For `C[C@H](NP(=O)(OC[C@H]1O[C@@H](n2cnc3c(O)nc(N)nc32)[C@](C)(F)[C@@H]1O)Oc1ccccc1)C(=O)OC1CCCCC1` (some centres not stated), the CC50 at 96 h in data set [1], in data set [2], in data set [4] and in data set [5] was greater than 100 µM in each case. In the data set with Hepatitis C virus [3] (Hepatitis C virus, Huh-7), this molecule showed an EC90 of 0.446 µM.
For `CCOc1nc(N)nc2c1ncn2[C@@H]1O[C@H](COP(=O)(N[C@@H](C)C(=O)OC)Oc2ccccc2)[C@@H](O)[C@@]1(C)F` (some centres not stated), the CC50 at 96 h is greater than 100 µM in data set [1], greater than 100 µM in data set [2], greater than 100 µM in data set [4] and 74 µM in data set [5]. Moreover, the EC90 in the data set on Hepatitis C virus [3] (Hepatitis C virus, Huh-7) amounted to 0.016 µM; in the data set on Hepatitis C virus [6] (Hepatitis C virus, Huh-7) it was 0.016 µM.
With `CCCOc1nc(N)nc2c1ncn2[C@@H]1O[C@H](COP(=O)(N[C@@H](C)C(=O)OC)Oc2ccccc2)[C@@H](O)[C@@]1(C)F` (some centres not stated), the CC50 at 96 h is 45 µM in data set [1], 39 µM in data set [2], 39 µM in data set [4] and 17 µM in data set [5]. In the data set with Hepatitis C virus [3] (Hepatitis C virus, Huh-7), this molecule registered a 90% effect concentration (EC90) of 0.0146 µM.
`CCOC(=O)[C@H](C)NP(=O)(OC[C@H]1O[C@@H](n2cnc3c(NC4CC4)nc(N)nc32)[C@](C)(F)[C@@H]1O)Oc1ccccc1` (some centres not stated): the CC50 at 96 h in data set [1] was greater than 100 µM; in data set [2] it was greater than 100 µM; in data set [4], greater than 100 µM; in data set [5] it was 45 µM. The same molecule had an EC90 in the data set with Hepatitis C virus [3] (Hepatitis C virus, Huh-7) of 0.0098 µM.
Take `CCCOc1nc(N)nc2c1ncn2[C@@H]1O[C@H](COP(=O)(N[C@@H](C)C(=O)OC(C)C)Oc2ccccc2)[C@@H](O)[C@@]1(C)F` (some centres not stated): the CC50 at 96 h is greater than 100 µM in data set [1], 49 µM in data set [2], greater than 100 µM in data set [4] and 44 µM in data set [5]. The molecule also showed an EC90 in the data set on Hepatitis C virus [3] (Hepatitis C virus, Huh-7) of 0.033 µM.
Turning to `COc1nc(N)nc2c1ncn2[C@@H]1O[C@H](COP(=O)(N[C@@H](C)C(=O)OC(C)C)Oc2ccccc2)[C@@H](O)[C@@]1(C)F` (stereo in doubt; 23b), the figures for the Activity in the data set on Huh-7 and in the data set on Hepatocyte were 0.17 mM and 0.44 mM, respectively. Also, the EC90 amounted to 0.008 µM in the data set on Hepatitis C virus [3] and 0.011 µM in the data set with Hepatitis C virus [6].
For the molecule `CCOC(=O)[C@H](C)NP(=O)(OC[C@H]1O[C@@H](n2cnc3c(NC4CCCC4)nc(N)nc32)[C@](C)(F)[C@@H]1O)Oc1ccccc1` (some centres not stated), in the data set on Hepatitis C virus [3] (Hepatitis C virus, Huh-7), the EC90 came to 0.026 µM.
Regarding `CC(C)OC(=O)[C@H](C)NP(=O)(OC[C@H]1O[C@@H](n2cnc3c(O)nc(N)nc32)[C@](C)(F)[C@@H]1O)Oc1ccccc1` (some centres not stated), the CC50 at 96 h in data set [1], in data set [2], in data set [4] and in data set [5] was greater than 100 µM in each case. For the same molecule, the EC90 in the data set with Hepatitis C virus [3] (Hepatitis C virus, Huh-7) is 0.75 µM; in the data set with Hepatitis C virus [6] (Hepatitis C virus, Huh-7), 0.61 µM.
